Drawing on patent US9670212B2, “Inhibitors of PI3K-delta and methods of their use and manufacture” (Exelixis, Inc., priority 2010, dated 2017), this text covers IC50 for 35 molecules.

A value given as a limit tells only on which side of the number the result lay.

The target of the assay is PI3K delta (Homo sapiens (Human), UniProt O00329). The experiment in a line: Luciferase-coupled chemiluminescence kinase assay (KinaseGlo, ATP consumption). Type of assay: biochemical. As to the method: Kinase activity and compound inhibition were investigated using one or more of the assay formats described below. The ATP concentrations used in the various assays were approximately equal to or less than the KM for each of the respective kinases. Dose-response experiments were performed using an intra-plate dilution scheme with 10 different inhibitor concentrations in a 384-well microtiter plate. […] Typically N should approximate unity. Curve fitting was performed using XLFit or ActivityBase. Luciferase-Coupled Chemiluminescence Assay Protocol
PI3K delta, sequence (O00329 whole entry): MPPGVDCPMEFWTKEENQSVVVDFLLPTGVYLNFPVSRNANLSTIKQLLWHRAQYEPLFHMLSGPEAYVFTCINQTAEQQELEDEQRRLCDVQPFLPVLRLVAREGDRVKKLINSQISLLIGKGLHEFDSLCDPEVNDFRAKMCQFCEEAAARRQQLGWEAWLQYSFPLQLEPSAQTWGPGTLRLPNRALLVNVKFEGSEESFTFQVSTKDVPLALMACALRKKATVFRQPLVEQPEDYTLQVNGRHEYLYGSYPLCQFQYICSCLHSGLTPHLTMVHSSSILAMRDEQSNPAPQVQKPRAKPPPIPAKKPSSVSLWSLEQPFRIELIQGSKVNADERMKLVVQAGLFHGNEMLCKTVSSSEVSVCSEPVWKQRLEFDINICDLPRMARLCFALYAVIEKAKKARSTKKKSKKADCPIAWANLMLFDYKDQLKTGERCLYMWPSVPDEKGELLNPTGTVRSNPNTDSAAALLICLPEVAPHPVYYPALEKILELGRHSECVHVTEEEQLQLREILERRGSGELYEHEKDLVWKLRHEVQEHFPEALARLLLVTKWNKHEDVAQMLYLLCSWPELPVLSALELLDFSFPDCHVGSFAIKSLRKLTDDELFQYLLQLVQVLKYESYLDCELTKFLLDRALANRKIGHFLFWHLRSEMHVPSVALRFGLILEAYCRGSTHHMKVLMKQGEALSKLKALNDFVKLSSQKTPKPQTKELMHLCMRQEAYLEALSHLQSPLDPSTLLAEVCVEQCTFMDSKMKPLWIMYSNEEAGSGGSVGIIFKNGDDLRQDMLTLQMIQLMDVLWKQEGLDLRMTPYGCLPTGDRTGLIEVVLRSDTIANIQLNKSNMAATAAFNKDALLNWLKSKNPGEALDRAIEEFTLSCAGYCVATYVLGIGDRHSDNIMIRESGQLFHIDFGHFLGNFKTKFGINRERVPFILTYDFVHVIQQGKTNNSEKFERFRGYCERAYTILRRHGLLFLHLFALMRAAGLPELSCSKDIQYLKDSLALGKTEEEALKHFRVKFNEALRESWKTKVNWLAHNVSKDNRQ
PI3K delta, sequence (P27986 whole entry partner): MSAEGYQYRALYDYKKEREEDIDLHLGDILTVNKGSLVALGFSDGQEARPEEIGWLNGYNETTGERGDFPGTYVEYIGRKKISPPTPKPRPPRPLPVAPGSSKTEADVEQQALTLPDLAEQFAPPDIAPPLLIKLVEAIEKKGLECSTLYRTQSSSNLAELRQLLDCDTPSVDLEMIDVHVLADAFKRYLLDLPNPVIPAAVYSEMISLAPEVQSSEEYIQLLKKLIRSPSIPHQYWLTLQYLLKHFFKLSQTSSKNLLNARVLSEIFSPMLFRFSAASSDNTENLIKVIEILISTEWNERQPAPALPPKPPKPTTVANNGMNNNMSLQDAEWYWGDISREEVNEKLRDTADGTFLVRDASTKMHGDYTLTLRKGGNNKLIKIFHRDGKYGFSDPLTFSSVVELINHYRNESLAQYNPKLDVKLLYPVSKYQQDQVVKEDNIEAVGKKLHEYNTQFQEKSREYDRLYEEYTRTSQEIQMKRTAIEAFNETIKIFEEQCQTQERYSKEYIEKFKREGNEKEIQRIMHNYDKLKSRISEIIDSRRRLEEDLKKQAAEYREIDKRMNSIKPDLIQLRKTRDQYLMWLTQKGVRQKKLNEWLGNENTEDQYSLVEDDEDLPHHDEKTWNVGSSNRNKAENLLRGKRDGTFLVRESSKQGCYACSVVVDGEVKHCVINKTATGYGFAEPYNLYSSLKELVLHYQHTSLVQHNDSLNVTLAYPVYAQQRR
Kinase activity is measured as the percent of ATP consumed following the kinase reaction using luciferase-luciferin-coupled chemiluminescence. […] Kinase reactions were initiated by combining test compounds, kinase, and ATP in a 20 μL volume (6 μL volume for 1536-well plate). The reaction mixture was incubated at ambient temperature for 2 h. Following the kinase reaction, a 20 μL (or 3 μL for 1536-well plate) aliquot of KinaseGlo (Promega) was added and the chemiluminescence signal measured using an EnVision plate reader (Perkin Elmer).
In general terms: Kinase-Glo measures the ATP left after a reaction by luminescence.
For orientation: IC50 means the concentration that inhibits the measured activity by half. Low values mean greater potency in that assay, high ones weaker potency in that assay. Turning to `Cc1cccc2cc(CNC(=O)c3nccnc3N)c(N3CC(C)NC[C@H]3C)nc12` (stereo in doubt) [Compound 123, 3-amino-N-({2-[(2R,5S)-2,5-dimethylpiperazin-1-yl]-8-methylquinolin-3-yl}methyl)pyrazine-2-carboxamide], the IC50 lay in the range of 250 to 500 nM.
The value for `Cc1cccc2cc(CSc3ncnc4[nH]cnc34)c(N(C)CC3CCN(C)CC3)nc12` [Compound 1, N,8-dimethyl-N-[(1-methylpiperidin-4-yl)methyl]-3-[(9H-purin-6-ylthio)methyl]quinolin-2-amine] was 50 to 250 nM; that for `Cc1cccc2cc(Cn3cnc4c(N)ncnc43)c(N(C)CC3CCCN3C)nc12` (centres unmarked) [Compound 2, 3-[(6-amino-9H-purin-9-yl)methyl]-N,8-dimethyl-N-[(1-methylpyrrolidin-2-yl)methyl]quinolin-2-amine] was < 50 nM.
Consider `Cc1cccc2cc(Cn3cnc4c(N)ncnc43)c(N(C)CC3CCCCN3C)nc12` (centres unmarked) [Compound 3, 3-[(6-amino-9H-purin-9-yl)methyl]-N,8-dimethyl-N-[(1-methylpiperidin-2-yl)methyl]quinolin-2-amine], for which the IC50 was < 50 nM.
`Cc1cccc2cc(Cn3cnc4c(N)ncnc43)c(N(C)CC3CCN(C)CC3)nc12` [Compound 4, 3-[(6-amino-9H-purin-9-yl)methyl]-N,8-dimethyl-N-[(1-methylpiperidin-4-yl)methyl]quinolin-2-amine]: the IC50 was < 50 nM.
Turning to `Cc1cccc2cc(CNc3cccc4c3OCCO4)c(-c3ccccc3Cl)nc12` [Compound 5], the IC50 fell in the range of 500 to 1500 nM.
The molecule `COc1cccc(CNCc2cc3cccc(C)c3nc2-c2ccccc2Cl)c1` [Compound 6, 1-[2-(2-chlorophenyl)-8-methylquinolin-3-yl]-N-{[3-(methyloxy)phenyl]methyl}methanamine] showed an IC50 of 500 to 1500 nM.
Turning to `Cc1cccc2cc(COc3ccc4c(c3)OCO4)c(-c3ccccc3Cl)nc12` [Compound 8, 3-[(1,3-benzodioxol-5-yloxy)methyl]-2-(2-chlorophenyl)-8-methylquinoline], the IC50 fell in the range of 500 to 1500 nM.
In turn, `COc1ccccc1NCc1cc2cccc(C)c2nc1-c1ccccc1Cl` [Compound 11, N-{[2-(2-chlorophenyl)-8-methylquinolin-3-yl]methyl}-2-(methyloxy)aniline] displayed an IC50 of 500 to 1500 nM.
In the case of `Cc1cccc2cc(CNc3ncnc4[nH]cnc34)c(N3CCN4CCCCC4C3)nc12` (centres unmarked) [Compound 12, N-{[8-methyl-2-(octahydro-2H-pyrido[1,2-a]pyrazin-2-yl)quinolin-3-yl]methyl}-9H-purin-6-amine], the IC50 was < 50 nM.
In turn, `Cc1cccc2cc(Cn3cnc4c(N)ncnc43)c(N3CCc4ccccc4C3)nc12` [Compound 14, 9-{[2-(3,4-dihydroisoquinolin-2(1H)-yl)-8-methylquinolin-3-yl]methyl}-9H-purin-6-amine] gave an IC50 of 500 to 1500 nM.
As to `COc1ccc(OCc2cc3cccc(C)c3nc2-c2ccccc2Cl)cc1` [Compound 16, 2-(2-chlorophenyl)-8-methyl-3-({[4-(methyloxy)phenyl]oxy}methyl)quinoline], the IC50 lay in the range of 500 to 1500 nM.
The molecule `COc1ccc(OC(C)c2cc3cccc(C)c3nc2-c2ccccc2Cl)cc1` (centres unmarked) [Compound 17, 2-(2-chlorophenyl)-8-methyl-3-(1-{[4-(methyloxy)phenyl]oxy}ethyl)quinoline] came in with an IC50 of 500 to 1500 nM.
As for `Cc1cccc2cc(CNc3ncnc4[nH]cnc34)c(N3CCc4ccccc4C3)nc12` [Compound 19, N-{[2-(3,4-dihydroisoquinolin-2(1H)-yl)-8-methylquinolin-3-yl]methyl}-9H-purin-6-amine], the IC50 lay in the range of 500 to 1500 nM.
The figure for `CNCCN(C)c1nc2c(C)cccc2cc1CNc1ccc(OC)cc1` [Compound 20, N,N′-dimethyl-N-[8-methyl-3-({[4-(methyloxy)phenyl]amino}methyl)quinolin-2-yl]ethane-1,2-diamine] is 500 to 1500 nM; for `CNCCN(C)c1nc2c(C)cccc2cc1CN1CCOCC1` [Compound 21, N,N′-dimethyl-N-[8-methyl-3-(morpholin-4-ylmethyl)quinolin-2-yl]ethane-1,2-diamine] it is 500 to 1500 nM; for `CNCCN(C)c1nc2c(C)cccc2cc1COc1ccc(OC)cc1` [Compound 23, N,N′-dimethyl-N-[8-methyl-3-({[4-(methyloxy)phenyl]oxy}methyl)quinolin-2-yl]ethane-1,2-diamine] it is 500 to 1500 nM.
As for `COCCN(C)c1nc2c(C)cccc2cc1CNc1ncnc2[nH]cnc12` [Compound 25, N,8-dimethyl-N-[2-(methyloxy)ethyl]-3-[(9H-purin-6-ylamino)methyl]quinolin-2-amine], the IC50 was < 50 nM.
Take `CCCCN(C)c1nc2c(C)cccc2cc1CNc1ncnc2[nH]cnc12` [Compound 26, N-butyl-N,8-dimethyl-3-[(9H-purin-6-ylamino)methyl]quinolin-2-amine]: the IC50 fell in the range of 50 to 250 nM.
Turning to `Cc1cccc2cc(CNc3ncnc4[nH]cnc34)c(N3CCCCC3)nc12` [Compound 27, N-[(8-methyl-2-piperidin-1-ylquinolin-3-yl)methyl]-9H-purin-6-amine], the IC50 lay in the range of 50 to 250 nM.
Regarding `Cc1cccc2cc(Cn3cnc4c(N)ncnc43)c(N(C)CCN(C)C(=O)Cn3cccn3)nc12` [Compound 28, N-{2-[{3-[(6-amino-9H-purin-9-yl)methyl]-8-methylquinolin-2-yl}(methyl)amino]ethyl}-N-methyl-2-(1H-pyrazol-1-yl)acetamide], the IC50 was < 50 nM.
The value for `CNCCN(C)c1nc2c(C)cccc2cc1-c1nnc(-c2nccnc2N)o1` [Compound 29, N-{3-[5-(3-aminopyrazin-2-yl)-1,3,4-oxadiazol-2-yl]-8-methylquinolin-2-yl}-N,N′-dimethylethane-1,2-diamine] was 500 to 1500 nM.
As to `Cc1cccc2cc(CNC(=O)c3nccnc3N)c(N(C)CC3CCCN(C)C3)nc12` (centres unmarked) [Compound 30, 3-amino-N-[(8-methyl-2-{methyl[(1-methylpiperidin-3-yl)methyl]amino}quinolin-3-yl)methyl]pyrazine-2-carboxamide], the IC50 is < 50 nM.
For `Cc1cccc2cc(CNC(=O)c3nccnc3N)c(N(C)CC3CCN(C)CC3)nc12` [Compound 31, 3-amino-N-[(8-methyl-2-{methyl[(1-methylpiperidin-4-yl)methyl]amino}quinolin-3-yl)methyl]pyrazine-2-carboxamide], the IC50 is < 50 nM.
With `Cc1cccc2cc(CNc3ncnc4[nH]cnc34)c(N(C)CC3CCCN(C)C3)nc12` (centres unmarked) [Compound 32, N,8-dimethyl-N-[(1-methylpiperidin-3-yl)methyl]-3-[(9H-purin-6-ylamino)methyl]quinolin-2-amine], the IC50 was < 50 nM.
As to `Cc1cccc2cc(CNc3ncnc4[nH]cnc34)c(N(C)CC3CCN(C)CC3)nc12` [Compound 33, N,8-dimethyl-N-[(1-methylpiperidin-4-yl)methyl]-3-[(9H-purin-6-ylamino)methyl]quinolin-2-amine], the IC50 was < 50 nM.
The value for `Cc1cccc2cc(Cn3cnc4c(N)ncnc43)c(N(C)CCN(C)C(=O)Cn3ccnn3)nc12` [Compound 34, N-{2-[{3-[(6-amino-9H-purin-9-yl)methyl]-8-methylquinolin-2-yl}(methyl)amino]ethyl}-N-methyl-2-(1H-1,2,3-triazol-1-yl)acetamide] was < 50 nM; that for `Cc1cccc2cc(CNc3ncnc4[nH]cnc34)c(N(C)CCN(C)C(=O)Cn3ccnn3)nc12` [Compound 35, N-methyl-N-[2-(methyl{8-methyl-3-[(9H-purin-6-ylamino)methyl]quinolin-2-yl}amino)ethyl]-2-(1H-1,2,3-triazol-1-yl)acetamide] was < 50 nM; that for `CNCCN(C)c1nc2c(C)cccc2cc1CNc1ncnc2[nH]cnc12` [Compound 36, N,N′-dimethyl-N-{8-methyl-3-[(9H-purin-6-ylamino)methyl]quinolin-2-yl}ethane-1,2-diamine] was < 50 nM.
`Cc1cccc2cc(CNc3ncnc4[nH]cnc34)c(N3CCNCC3)nc12` [Compound 37, N-[(8-methyl-2-piperazin-1-ylquinolin-3-yl)methyl]-9H-purin-6-amine]: the IC50 was < 50 nM.
As to `Cc1cccc2cc(CNc3ncnc4[nH]cnc34)c(N(C)CC3CCCCN3C)nc12` (centres unmarked) [Compound 38, N,8-dimethyl-N-[(1-methylpiperidin-2-yl)methyl]-3-[(9H-purin-6-ylamino)methyl]quinolin-2-amine], the IC50 is < 50 nM.
In the case of `Cc1cccc2cc(CNC(=O)c3nccnc3N)c(N(C)CC3CCCCN3C)nc12` (centres unmarked) [Compound 39, 3-amino-N-[(8-methyl-2-{methyl[(1-methylpiperidin-2-yl)methyl]amino}quinolin-3-yl)methyl]pyrazine-2-carboxamide], the IC50 was < 50 nM.
The molecule `CNCCN(C)c1nc2c(C)cccc2cc1CNC(=O)C1(C(=O)NC)CC1` [Compound 40, N-methyl-N′-[(8-methyl-2-{methyl[2-(methylamino)ethyl]amino}quinolin-3-yl)methyl]cyclopropane-1,1-dicarboxamide] showed an IC50 of 500 to 1500 nM.
`CC(=O)N1CCN(c2nc3ccccc3nc2Nc2cccc(C(N)=O)c2)CC1` [Compound 41, 3-{[3-(4-acetylpiperazin-1-yl)quinoxalin-2-yl]amino}benzamide] gave an IC50 of 500 to 1500 nM.
With `Cc1cccc2cc(CNC(=O)c3nccnc3N)c(N(C)CCN(C)C(=O)Cn3cnnn3)nc12` [Compound 42, 3-amino-N-{[8-methyl-2-(methyl{2-[methyl(1H-tetrazol-1-ylacetyl)amino]ethyl}amino)quinolin-3-yl]methyl}pyrazine-2-carboxamide], the IC50 is < 50 nM.
